Counter-ions that a name gives are not always drawn. Like-named read-outs stand apart in the source and are kept apart here.
Tests used:
[1] = Bioavailability of crystalline Forms (I) and (II) in dogs; assay type: in vivo, Beagle dogs; settings: for AUC0-t / Cmax / concentration in plasma of lercanidipine (S+R): oral 3 mg/kg
Experimental: A study was carried out on six Beagle dogs to evaluate the bioavailability of crystalline Forms (I) and (II).
Blood samples were taken at given times and plasma concentrations of lercanidipine were determined with a stereoselective analytical method HPLC-MS/MS, according to the following working conditions;
Lercanidipine was extracted from dog plasma by means of a liquid-liquid extraction with a mixture of n-hexane and ethyl ether. The dry residue of the organic phase was taken up with a mixture of methanol and water and a liquid-phase chromatographic separation (LC) was carried out; the two enantiomers of lercanidipine were separated on a CHIROBIOTIC V column (Vancomycin) (particle size […], column size 150 x 4.6 mm (ASTEC, NJ, USA)) and were detected with a mass spectrometer (MS/MS) by using an electrospray technique.
The analytical method was validated in a concentration range between 0.1 and 20 ng/ml of plasma for both enantiomers. The method has shown to be specific with an accuracy of 15%. The average concentrations of lercanidipine in the tables represent the sum of both enantiomers.

[2] = Solubility in mixtures of water-ethanol at 25°C and 40°C; assay type: physicochemical
[3] = Relative bioavailability of Form (I) and Form (II) in man; assay type: in vivo; settings: 10 mg tablet
Experimental: Blood samples were taken at 15 points from time 0 to 24 h post-dosing and plasma concentrations of lercanidipine were determined with a stereoselective analytical method HPLC-MS/MS.

[4] = Hygroscopicity by DVS analysis; assay type: physicochemical; settings: 25°C
Experimental: The hygroscopicity of both crystalline Forms (I) and (II) was measured with DVS analysis by means of a water absorption analyzer (SURFACE MEASUREMENT SYSTEM, Marion, Buckinghamshire, UK) according to the following working conditions: […]

SMILES: COC(=O)C1=C(C)NC(C)=C(C(=O)OC(C)(C)CN(C)CCC(c2ccccc2)c2ccccc2)C1c1cccc([N+](=O)[O-])c1 (single isomer, unassigned) [Form (I), lercanidipine hydrochloride]
- AUC0-t ([1]; Dog 1, hydrochloride, 3 mg/kg): 15.41 ng/h/mL
- Cmax ([1]; Dog 1, hydrochloride, 3 mg/kg): 8.29 ng/mL
- Cmax ([1]; Dog 2 (not included in mean), hydrochloride, 3 mg/kg): 128.87 ng/mL
- AUC0-t ([1]; Dog 3, hydrochloride, 3 mg/kg): 27.544 ng/h/mL
- Cmax ([1]; Dog 3, hydrochloride, 3 mg/kg): 11.62 ng/mL
- AUC0-t ([1]; Dog 4, hydrochloride, 3 mg/kg): 46.57 ng/h/mL
- Cmax ([1]; Dog 4, hydrochloride, 3 mg/kg): 27.17 ng/mL
- AUC0-t ([1]; Dog 5, hydrochloride, 3 mg/kg): 70.39 ng/h/mL
- Cmax ([1]; Dog 5, hydrochloride, 3 mg/kg): 22.58 ng/mL
- AUC0-t ([1]; Dog 6, hydrochloride, 3 mg/kg): 28.72 ng/h/mL
- Cmax ([1]; Dog 6, hydrochloride, 3 mg/kg): 17.83 ng/mL
- Cmax ([1]; Mean (n=5, Dog 2 not included), hydrochloride, 3 mg/kg): 17.50 ng/mL
- concentration in plasma of lercanidipine (S+R) ([1]; Time 0 h, Dog 1): 0.00 ng/mL
- concentration in plasma of lercanidipine (S+R) ([1]; Time 0 h, Dog 2 (not included in mean)): 0.00 ng/mL
- concentration in plasma of lercanidipine (S+R) ([1]; Time 0 h, Dog 3): 0.00 ng/mL
- concentration in plasma of lercanidipine (S+R) ([1]; Time 0 h, Dog 4): 0.00 ng/mL
- concentration in plasma of lercanidipine (S+R) ([1]; Time 0 h, Dog 5): 0.00 ng/mL
- concentration in plasma of lercanidipine (S+R) ([1]; Time 0 h, Dog 6): 0.00 ng/mL
- concentration in plasma of lercanidipine (S+R) ([1]; Time 0 h, Mean (Dog 2 not included)): 0.00 ng/mL
- concentration in plasma of lercanidipine (S+R) ([1]; Time 0.5 h, Dog 2 (not included in mean), hydrochloride, 3 mg/kg, 30 min): 0.20 ng/mL
- concentration in plasma of lercanidipine (S+R) ([1]; Time 0.5 h, Dog 3, hydrochloride, 3 mg/kg): 0.00 ng/mL
- concentration in plasma of lercanidipine (S+R) ([1]; Time 0.5 h, Dog 4): 0.00 ng/mL
- concentration in plasma of lercanidipine (S+R) ([1]; Time 0.5 h, Dog 5): 0.00 ng/mL
- concentration in plasma of lercanidipine (S+R) ([1]; Time 0.5 h, Dog 6): 0.00 ng/mL
- concentration in plasma of lercanidipine (S+R) ([1]; Time 0.5 h, Mean (Dog 2 not included), hydrochloride, 3 mg/kg): 0.00 ng/mL
- concentration in plasma of lercanidipine (S+R) ([1]; Time 1 h, Dog 2 (not included in mean), hydrochloride, 3 mg/kg, 60 min): 0.29 ng/mL
- concentration in plasma of lercanidipine (S+R) ([1]; Time 1 h, Dog 3, hydrochloride, 3 mg/kg): 0.00 ng/mL
- concentration in plasma of lercanidipine (S+R) ([1]; Time 1 h, Dog 4, hydrochloride, 3 mg/kg): 0.00 ng/mL
- concentration in plasma of lercanidipine (S+R) ([1]; Time 1 h, Dog 5, hydrochloride, 3 mg/kg): 0.00 ng/mL
- concentration in plasma of lercanidipine (S+R) ([1]; Time 1 h, Dog 6): 0.00 ng/mL
- concentration in plasma of lercanidipine (S+R) ([1]; Time 1 h, Mean (Dog 2 not included), hydrochloride, 3 mg/kg, 60 min): 0.12 ng/mL
- concentration in plasma of lercanidipine (S+R) ([1]; Time 1.5 h, Dog 1, hydrochloride, 3 mg/kg, 90 min): 1.83 ng/mL
- concentration in plasma of lercanidipine (S+R) ([1]; Time 1.5 h, Dog 2 (not included in mean), hydrochloride, 3 mg/kg, 90 min): 1.06 ng/mL
- concentration in plasma of lercanidipine (S+R) ([1]; Time 1.5 h, Dog 3, hydrochloride, 3 mg/kg, 90 min): 0.32 ng/mL
- concentration in plasma of lercanidipine (S+R) ([1]; Time 1.5 h, Dog 4, hydrochloride, 3 mg/kg): 0.00 ng/mL
- concentration in plasma of lercanidipine (S+R) ([1]; Time 1.5 h, Dog 5, hydrochloride, 3 mg/kg, 90 min): 1.33 ng/mL
- concentration in plasma of lercanidipine (S+R) ([1]; Time 1.5 h, Dog 6, hydrochloride, 3 mg/kg): 0.00 ng/mL
- concentration in plasma of lercanidipine (S+R) ([1]; Time 1.5 h, Mean (Dog 2 not included), hydrochloride, 3 mg/kg, 90 min): 0.70 ng/mL
- concentration in plasma of lercanidipine (S+R) ([1]; Time 2 h, Dog 1, hydrochloride, 3 mg/kg, 120 min): 8.29 ng/mL
- concentration in plasma of lercanidipine (S+R) ([1]; Time 2 h, Dog 2 (not included in mean), hydrochloride, 3 mg/kg, 120 min): 8.94 ng/mL
- concentration in plasma of lercanidipine (S+R) ([1]; Time 2 h, Dog 3, hydrochloride, 3 mg/kg, 120 min): 0.94 ng/mL
- concentration in plasma of lercanidipine (S+R) ([1]; Time 2 h, Dog 4, hydrochloride, 3 mg/kg, 120 min): 0.35 ng/mL
- concentration in plasma of lercanidipine (S+R) ([1]; Time 2 h, Dog 5, hydrochloride, 3 mg/kg, 120 min): 17.11 ng/mL
- concentration in plasma of lercanidipine (S+R) ([1]; Time 2 h, Dog 6, hydrochloride, 3 mg/kg, 120 min): 0.28 ng/mL
- concentration in plasma of lercanidipine (S+R) ([1]; Time 2 h, Mean (Dog 2 not included), hydrochloride, 3 mg/kg, 120 min): 5.39 ng/mL
- concentration in plasma of lercanidipine (S+R) ([1]; Time 3 h, Dog 1, hydrochloride, 3 mg/kg, 180 min): 4.44 ng/mL
- concentration in plasma of lercanidipine (S+R) ([1]; Time 3 h, Dog 2 (not included in mean), hydrochloride, 3 mg/kg, 180 min): 36.39 ng/mL
- concentration in plasma of lercanidipine (S+R) ([1]; Time 3 h, Dog 3, hydrochloride, 3 mg/kg, 180 min): 0.92 ng/mL
- concentration in plasma of lercanidipine (S+R) ([1]; Time 3 h, Dog 4, hydrochloride, 3 mg/kg, 180 min): 27.17 ng/mL
- concentration in plasma of lercanidipine (S+R) ([1]; Time 3 h, Dog 5, hydrochloride, 3 mg/kg, 180 min): 22.58 ng/mL
- concentration in plasma of lercanidipine (S+R) ([1]; Time 3 h, Dog 6, hydrochloride, 3 mg/kg, 180 min): 1.29 ng/mL
- concentration in plasma of lercanidipine (S+R) ([1]; Time 3 h, Mean (Dog 2 not included), hydrochloride, 3 mg/kg, 180 min): 11.28 ng/mL
- concentration in plasma of lercanidipine (S+R) ([1]; Time 4 h, Dog 1, hydrochloride, 3 mg/kg, 240 min): 1.81 ng/mL
- concentration in plasma of lercanidipine (S+R) ([1]; Time 4 h, Dog 2 (not included in mean), hydrochloride, 3 mg/kg, 240 min): 128.87 ng/mL
- concentration in plasma of lercanidipine (S+R) ([1]; Time 4 h, Dog 3, hydrochloride, 3 mg/kg, 240 min): 9.42 ng/mL
- concentration in plasma of lercanidipine (S+R) ([1]; Time 4 h, Dog 4, hydrochloride, 3 mg/kg, 240 min): 11.07 ng/mL
- concentration in plasma of lercanidipine (S+R) ([1]; Time 4 h, Dog 5, hydrochloride, 3 mg/kg, 240 min): 16.39 ng/mL
- concentration in plasma of lercanidipine (S+R) ([1]; Time 4 h, Dog 6, hydrochloride, 3 mg/kg, 240 min): 6.26 ng/mL
- concentration in plasma of lercanidipine (S+R) ([1]; Time 4 h, Mean (Dog 2 not included), hydrochloride, 3 mg/kg, 240 min): 8.99 ng/mL
- concentration in plasma of lercanidipine (S+R) ([1]; Time 6 h, Dog 1, hydrochloride, 3 mg/kg, 360 min): 0.80 ng/mL
- concentration in plasma of lercanidipine (S+R) ([1]; Time 6 h, Dog 2 (not included in mean), hydrochloride, 3 mg/kg, 360 min): 26.65 ng/mL
- concentration in plasma of lercanidipine (S+R) ([1]; Time 6 h, Dog 3, hydrochloride, 3 mg/kg, 360 min): 11.62 ng/mL
- concentration in plasma of lercanidipine (S+R) ([1]; Time 6 h, Dog 4, hydrochloride, 3 mg/kg, 360 min): 2.53 ng/mL
- Tmax ([1]; dog, plasma, po, 3 mg/kg, Dog 1, read-out: Tmax): 2 h
- Tmax ([1]; dog, plasma, po, 3 mg/kg, Dog 4, read-out: Tmax): 3 h
- Tmax ([1]; dog, plasma, po, 3 mg/kg, Dog 5, read-out: Tmax): 3 h
- Tmax ([1]; dog, plasma, po, 3 mg/kg, Dog 6, read-out: Tmax): 6 h
- Tmax ([1]; dog, plasma, po, 3 mg/kg, Mean (n=5, Dog 2 not included), read-out: Tmax): 4 h
- concentration at 0.5 h ([1]; dog, plasma, po, 3 mg/kg, Time 0.5 h, Dog 1, read-out: concentration in plasma of lercanidipine (S+R)): 0.1 ng/mL
- concentration at 1 h ([1]; dog, plasma, po, 3 mg/kg, Time 1 h, Dog 1, read-out: concentration in plasma of lercanidipine (S+R)): 0.59 ng/mL
- concentration at 6 h ([1]; dog, plasma, po, 3 mg/kg, Time 6 h (last sampling time), Mean (Dog 2 not included), read-out: concentration in plasma of lercanidipine (S+R)): 8.5 ± 6.5 ng/mL
- concentration at 6 h ([1]; dog, plasma, po, 3 mg/kg, Time 6 h, Dog 5, read-out: concentration in plasma of lercanidipine (S+R)): 9.73 ng/mL
- concentration at 6 h ([1]; dog, plasma, po, 3 mg/kg, Time 6 h, Dog 6, read-out: concentration in plasma of lercanidipine (S+R)): 17.8 ng/mL
- solubility compared with Form (II) ([2]; 25°C and 40°C): higher than that of crystalline Form (II)
- water concentration at which the maximum solubility is reached ([2]; at both 25°C and 40°C): 20%
- tmax compared with Form (II) [3]: shorter than that of Form (II)
- AUC(0-t) at 24 h ([3]; human, plasma, po, 10 mg, single dose, geom. least square mean): 8.82 ng·h/mL
- Cmax ([3]; human, plasma, po, 10 mg, single dose, geom. least square mean, read-out: Cmax): 3.18 ng/mL
- Tmax ([3]; human, plasma, po, 10 mg, single dose, median, read-out: tmax): 1.5 h
- mass change ([4]; at 0% RH): -0.3%
- mass change ([4]; at 95% RH): +0.15%

Reference: patent EP1432683B9 (Recordati Ireland Limited, priority 2001, dated 2003)
